Assay results as given in ChEMBL document CHEMBL3885881, “DrugMatrix”.

Species on record: Rattus norvegicus
Assay: DrugMatrix - Regimen: Daily Repeat
Assay type: toxicity, organism-based, Sprague-Dawley
Set-up: regimen Daily Repeat, gender Male, age 6-8 weeks
Conditions: in vivo, po, route oral GAVAGE, vehicle 100 % WATER; for ABSOLUTE BASOPHIL / ABSOLUTE EOSINOPHIL / ABSOLUTE LYMPHOCYTE / ABSOLUTE MONOCYTE / ABSOLUTE SEGMENTED NEUTROPHIL / BASOPHIL / EOSINOPHIL / ERYTHROCYTE COUNT / HEMATOCRIT / HEMOGLOBIN / LEUKOCYTE COUNT / LYMPHOCYTE / MEAN CORPUSCULAR HEMOGLOBIN / MEAN CORPUSCULAR HEMOGLOBIN CONCENTRATION / MEAN CORPUSCULAR VOLUME / MONOCYTE / NEUTROPHIL / NUCLEATED RED BLOOD CELLS / PLATELET COUNT: tissue Blood; for ALANINE AMINOTRANSFERASE / ALBUMIN / ALKALINE PHOSPHATASE / ASPARTATE AMINOTRANSFERASE / BLOOD UREA NITROGEN / CARBON DIOXIDE / CHLORIDE / CHOLESTEROL / CREATINE PHOSPHOKINASE / CREATININE / GLUCOSE / LACTATE DEHYDROGENASE / LIPASE / PHOSPHORUS / POTASSIUM / SODIUM / TOTAL BILIRUBIN / TOTAL PROTEIN / URIC ACID: tissue Plasma
[1] = 0 mg/kg, 72 h, dose level Control, time 3 day
[2] = 0 mg/kg, 120 h, dose level Control, time 5 day
[3] = 15 mg/kg, 72 h, dose level Low, time 3 day

NNC(=O)c1ccncc1 [ISONIAZID]
ABSOLUTE BASOPHIL [1]: 0 CELLS/uL | ABSOLUTE EOSINOPHIL [1]: 46 CELLS/uL | ABSOLUTE LYMPHOCYTE [1]: 10225.67 CELLS/uL | ABSOLUTE MONOCYTE [1]: 319.33 CELLS/uL | ABSOLUTE SEGMENTED NEUTROPHIL [1]: 1242.33 CELLS/uL | BASOPHIL [1]: 0% | EOSINOPHIL [1]: 0.33% | ERYTHROCYTE COUNT [1]: 5.17 x10E6/uL | HEMATOCRIT [1]: 33.43% | HEMOGLOBIN [1]: 12.55 G/DL | LEUKOCYTE COUNT [1]: 11.83 x10E3/uL | LYMPHOCYTE [1]: 86.5% | MEAN CORPUSCULAR HEMOGLOBIN [1]: 24.35 pg | MEAN CORPUSCULAR HEMOGLOBIN CONCENTRATION [1]: 37.57 G/DL | MEAN CORPUSCULAR VOLUME [1]: 64.8 fL | MONOCYTE [1]: 2.67% | NEUTROPHIL [1]: 10.5% | NUCLEATED RED BLOOD CELLS [1]: 0.17 /100WBC | PLATELET COUNT [1]: 1026.17 x10E3/uL | ALANINE AMINOTRANSFERASE [1]: 52.67 u/L | ALBUMIN [1]: 4.17 G/DL | ALKALINE PHOSPHATASE [1]: 331 u/L | ASPARTATE AMINOTRANSFERASE [1]: 92.33 u/L | BLOOD UREA NITROGEN [1]: 15.33 mg/dL | CARBON DIOXIDE [1]: 26.17 mmol/L | CHLORIDE [1]: 103.17 MEQ/L | CHOLESTEROL [1]: 73.67 mg/dL | CREATINE PHOSPHOKINASE [1]: 472.83 u/L | CREATININE [1]: 0.29 mg/dL | GLUCOSE [1]: 178.5 mg/dL | LACTATE DEHYDROGENASE [1]: 244.83 u/L | LIPASE [1]: 10.67 u/L | PHOSPHORUS [1]: 12.45 mg/dL | POTASSIUM [1]: 6.35 MEQ/L | SODIUM [1]: 144.27 MEQ/L | TOTAL BILIRUBIN [1]: 0.13 mg/dL | TOTAL PROTEIN [1]: 5.77 G/DL | URIC ACID [1]: 2.08 mg/dL | ABSOLUTE BASOPHIL [2]: 0 CELLS/uL | ABSOLUTE EOSINOPHIL [2]: 23.5 CELLS/uL | ABSOLUTE LYMPHOCYTE [2]: 12797.33 CELLS/uL | ABSOLUTE MONOCYTE [2]: 465.5 CELLS/uL | ABSOLUTE SEGMENTED NEUTROPHIL [2]: 1313.67 CELLS/uL | BASOPHIL [2]: 0% | EOSINOPHIL [2]: 0.17% | ERYTHROCYTE COUNT [2]: 5.76 x10E6/uL | HEMATOCRIT [2]: 36.72% | HEMOGLOBIN [2]: 13.72 G/DL | LEUKOCYTE COUNT [2]: 14.6 x10E3/uL | LYMPHOCYTE [2]: 87.5% | MEAN CORPUSCULAR HEMOGLOBIN [2]: 23.8 pg | MEAN CORPUSCULAR HEMOGLOBIN CONCENTRATION [2]: 37.35 G/DL | MEAN CORPUSCULAR VOLUME [2]: 63.72 fL | MONOCYTE [2]: 3.17% | NEUTROPHIL [2]: 9.17% | NUCLEATED RED BLOOD CELLS [2]: 0.33 /100WBC | PLATELET COUNT [2]: 1270.67 x10E3/uL | ALANINE AMINOTRANSFERASE [2]: 50.5 u/L | ALBUMIN [2]: 4.32 G/DL | ALKALINE PHOSPHATASE [2]: 339.67 u/L | ASPARTATE AMINOTRANSFERASE [2]: 88 u/L | BLOOD UREA NITROGEN [2]: 17 mg/dL | CARBON DIOXIDE [2]: 25 mmol/L | CHLORIDE [2]: 103.83 MEQ/L | CHOLESTEROL [2]: 71.33 mg/dL | CREATINE PHOSPHOKINASE [2]: 281.83 u/L | CREATININE [2]: 0.26 mg/dL | GLUCOSE [2]: 161.67 mg/dL | LACTATE DEHYDROGENASE [2]: 191.17 u/L | LIPASE [2]: 10.17 u/L | PHOSPHORUS [2]: 11.72 mg/dL | POTASSIUM [2]: 6.76 MEQ/L | SODIUM [2]: 145.17 MEQ/L | TOTAL BILIRUBIN [2]: 0.2 mg/dL | TOTAL PROTEIN [2]: 6.15 G/DL | URIC ACID [2]: 2 mg/dL | ABSOLUTE BASOPHIL [3]: 0 CELLS/uL | ABSOLUTE EOSINOPHIL [3]: 0 CELLS/uL | ABSOLUTE LYMPHOCYTE [3]: 12954 CELLS/uL | ABSOLUTE MONOCYTE [3]: 520 CELLS/uL | ABSOLUTE SEGMENTED NEUTROPHIL [3]: 1492.67 CELLS/uL | BASOPHIL [3]: 0% | EOSINOPHIL [3]: 0% | ERYTHROCYTE COUNT [3]: 5.66 x10E6/uL | HEMATOCRIT [3]: 34.97% | HEMOGLOBIN [3]: 13.17 G/DL | LEUKOCYTE COUNT [3]: 14.97 x10E3/uL | LYMPHOCYTE [3]: 86.33% | MEAN CORPUSCULAR HEMOGLOBIN [3]: 23.27 pg | MEAN CORPUSCULAR HEMOGLOBIN CONCENTRATION [3]: 37.67 G/DL | MEAN CORPUSCULAR VOLUME [3]: 61.73 fL | MONOCYTE [3]: 3.67% | NEUTROPHIL [3]: 10% | NUCLEATED RED BLOOD CELLS [3]: 0 /100WBC | PLATELET COUNT [3]: 1157.33 x10E3/uL | ALANINE AMINOTRANSFERASE [3]: 52.67 u/L | ALBUMIN [3]: 4.23 G/DL | ALKALINE PHOSPHATASE [3]: 369.67 u/L | ASPARTATE AMINOTRANSFERASE [3]: 95.67 u/L | BLOOD UREA NITROGEN [3]: 14.33 mg/dL | CARBON DIOXIDE [3]: 26 mmol/L | CHLORIDE [3]: 102.33 MEQ/L | CHOLESTEROL [3]: 93.67 mg/dL | CREATINE PHOSPHOKINASE [3]: 235.67 u/L | CREATININE [3]: 0.28 mg/dL | GLUCOSE [3]: 155 mg/dL | LACTATE DEHYDROGENASE [3]: 140.33 u/L | LIPASE [3]: 12 u/L | PHOSPHORUS [3]: 12.77 mg/dL | POTASSIUM [3]: 6.52 MEQ/L | SODIUM [3]: 144.23 MEQ/L | TOTAL BILIRUBIN [3]: 0.2 mg/dL | TOTAL PROTEIN [3]: 5.83 G/DL | URIC ACID [3]: 1.4 mg/dL
